Where two headings read alike, the source gives them in different places.
Legend:
HIV = assay type: cell-based; conditions: Table 19b; yes/no
SARS-CoV E protein = SARS-CoV E protein (Severe acute respiratory syndrome coronavirus, UniProt P59637); assay type: cell-based
[1] = system: porcine respiratory coronavirus (PRCV) strain AR310; test: PRCV plaque assay in ST cells; assay type: cell-based; conditions: Alphacoronavirus 1; PRCV plaques in ST cells
bovine coronavirus (BCV) = test: BCV plaque assay in MDBK cells; assay type: cell-based; conditions: Betacoronavirus 1; BCV plaques in MDBK cells
Vpu protein = Vpu protein (Human immunodeficiency virus type 1 group M subtype B, UniProt P05919); conditions: for Vpu Inhibition (score/# of times tested): halo of growth score between zero and six, XL1-blue E. coli with pPL-Vpu, no adenine, 37° C.
MHV (strain MHV-A59) [2] = conditions: L929 cells
229E-CoV E-protein = 229E-CoV E-protein (Human coronavirus 229E, UniProt P19741); test: Bacterial bio-assay for 229E-CoV E-protein; conditions: halo of growth score; E. coli expressing E protein at 37° C.
MHV (strain MHV-A59) [3] = test: microbe, parasite or virus in culture; conditions: Murine coronavirus, L929, read-out: Percent reduction in Plaque number/# experiments
human coronavirus OC43 = test: microbe, parasite or virus in culture; assay type: cell-based; conditions: Betacoronavirus 1, OC43, MRC5, 120 h, MRC-5 cells, 5 days post infection
[4] = biological target: SARS E protein ion channel (Severe acute respiratory syndrome coronavirus, UniProt P59637); assay type: biochemical, SARS-CoV
[5] = system: SARS-CoV (Hong Kong strain); assay type: cell-based, SARS coronavirus; conditions: for Titre (% control): 48 hours; for Average TCID50 (×10^6): 48 hours post infection
[6] = Table 19a, rank among 12 compounds, 1 = highest score

| SMILES | At least 1x log reduction seen in p24 assay? (HIV) | SARS E protein Inhibition (score/# of times tested) (SARS-CoV E protein) | EC50 [1] [µM] | EC50 (bovine coronavirus (BCV)) [µM] | Bacterial assay rank order (Vpu protein; [6]) | Bacterial assay rank order (Vpu protein; Table 19b) | Vpu Bacterial score (Vpu protein; Table 19b) | Vpu Inhibition (score/# of times tested) (Vpu protein) | Percent reduction in Plaque number/# experiments (MHV (strain MHV-A59) [2]; 1 uM) | Percent reduction in Plaque number/# experiments (MHV (strain MHV-A59) [2]; 10 uM) | Percent reduction in Plaque number/# experiments (MHV (strain MHV-A59) [2]; 20 uM) | 229E E protein Inhibition (score) (229E-CoV E-protein) | inhibition at 1 µM (MHV (strain MHV-A59) [3]) [%] | inhibition at 10 µM (MHV (strain MHV-A59) [3]) [%] | inhibition at 2.5 µM (human coronavirus OC43) [%] | % Reduction of average current by 100 μM [4] [%] | Titre (% control) ([5]; Compound Concentration 2 uM) | Average TCID50 (×10^6) ([5]; Compound Concentration 2 uM) | Titre (% control) ([5]; Compound Concentration 10 uM) | Average TCID50 (×10^6) ([5]; Compound Concentration 10 uM) |
| --- | --- | --- | --- | --- | --- | --- | --- | --- | --- | --- | --- | --- | --- | --- | --- | --- | --- | --- | --- | --- |
| N=C(N)NC(=O)Cc1ccc2ccccc2c1 [2-(2-napthyl)acetoylguanidine] | no | 0.71/1 score | 120 | 99 | 11 | 11 | 1.2 | 1.19/2 score | 23/1% | 20/2% | 52/1% | 0.1 |  |  |  |  |  |  |  |  |
| CCCCC/C=C/c1cccc(/C=C/C(=O)NC(=N)N)c1 [3-(trans-hept-1-en-1-yl)cinnamoylguanidine] |  | 1.71/1 score |  |  |  |  |  | 0.81/2 score |  |  |  |  | -6 | 23 |  |  |  |  |  |  |
| Cc1cccc(/C=C/C(=O)NC(=N)N)c1 [3-methylcinnamoylguanidine] | yes | 1.00/1 score | 1.43 |  | 3 | 3 | 3.4 | 3.4/2 score | 39/1% | 88/1% | 90/1% | 0.5 |  |  | 100 |  |  |  |  |  |
| COc1ccc2cc(C(=O)NC(=N)N)ccc2c1 [6-methoxy-2-naphthoylguanidine] | yes | 3.13/3 score | 0.04 | 9 | 5.5 | 5.5 | 2.9 | 2.9/4 score | 34/3% | 56/3% | 88/3% | 1.4 |  |  | 47 | 92 ± 16 | 118 | 6.35 ×10^6 | 111 | 5.95 ×10^6 |
| N=C(N)NC(=O)/C=C/c1ccco1 [(2-Furanacryloyl)guanidine] |  | 0.82/2 score |  |  |  |  |  | 0.94/2 score |  | 63/2% | 67/2% |  | -3 |  |  |  |  |  |  |  |
| N=C(N)NC(=O)C1CC1c1ccccc1 (stereo not drawn) [(trans-2-Phenylcyclopropanecarbonyl)guanidine] | no | 1.34/3 score | 17.2 | 109 | 12 | 12 | 0.4 | 0.4/2 score | 31/2% | 64/2% | 77/2% | 0.8 |  |  | 71 |  |  |  |  |  |
| N=C(NC(=O)CCc1ccccc1)Nc1ccccc1 [N-(3-phenylpropanoyl)-N′-phenylguanidine] | no | 1.57/2 score | 19 | 156 | 9 | 9 | 2.2 | 2.21/3 score | 43/1% | 65/1% | 80/1% | 0.1 |  |  |  |  |  |  |  |  |
